In ChEMBL document CHEMBL4507292 (2021):

Key:
[1] = molecular target: Tyrosine-protein kinase Srms (Homo sapiens) (UniProt Q9H3Y6); conditions: Compound concentration 1000.0 nM
[2] = molecular target: Tyrosine-protein kinase Lck (Homo sapiens) (UniProt P06239); conditions: Compound concentration 1000.0 nM
[3] = molecular target: Serine/threonine-protein kinase SIK2 (Homo sapiens) (UniProt Q9H0K1); conditions: Compound concentration 1000.0 nM
[4] = molecular target: Tyrosine-protein kinase ABL1 (Homo sapiens) (UniProt P00519); conditions: Compound concentration 1000.0 nM
[5] = molecular target: STE20/SPS1-related proline-alanine-rich protein kinase (Homo sapiens) (UniProt Q9UEW8); conditions: Compound concentration 1000.0 nM
[6] = molecular target: Receptor-type tyrosine-protein kinase FLT3 (Homo sapiens) (UniProt P36888); conditions: Compound concentration 1000.0 nM
[7] = molecular target: Epidermal growth factor receptor (Homo sapiens, UniProt P00533); conditions: Compound concentration 1000.0 nM
[8] = molecular target: Serine/threonine-protein kinase MARK2 (Homo sapiens) (UniProt Q7KZI7); conditions: Compound concentration 1000.0 nM
[9] = molecular target: Leucine-rich repeat serine/threonine-protein kinase 2 (Homo sapiens) (UniProt Q5S007); conditions: Compound concentration 1000.0 nM
[10] = molecular target: Inhibitor of nuclear factor kappa-B kinase subunit alpha (Homo sapiens) (UniProt O15111); conditions: Compound concentration 1000.0 nM
[11] = molecular target: Muscarinic acetylcholine receptor M2 (Homo sapiens) (UniProt P08172); conditions: Compound concentration 10.0 uM
[12] = molecular target: Histamine H2 receptor (Homo sapiens) (UniProt P25021); conditions: Compound concentration 10.0 uM
[13] = system: Phosphatidylinositol 4,5-bisphosphate 3-kinase catalytic subunit alpha isoform (Homo sapiens), P42336 [E545K]; conditions: Compound concentration 1000.0 nM
[14] = molecular target: Myosin light chain kinase (Homo sapiens) (UniProt Q32MK0); conditions: Compound concentration 1000.0 nM
[15] = molecular target: Macrophage colony-stimulating factor 1 receptor (Homo sapiens) (UniProt P07333); conditions: Compound concentration 1000.0 nM
[16] = system: Receptor-type tyrosine-protein kinase FLT3 (Homo sapiens), P36888 [UNDEFINED MUTATION]; conditions: Compound concentration 1000.0 nM
[17] = molecular target: Serine/threonine-protein kinase RIO2 (Homo sapiens) (UniProt Q9BVS4); conditions: Compound concentration 1000.0 nM
[18] = molecular target: Serine/threonine-protein kinase VRK2 (Homo sapiens) (UniProt Q86Y07); conditions: Compound concentration 1000.0 nM
[19] = molecular target: Receptor-interacting serine/threonine-protein kinase 1 (Homo sapiens) (UniProt Q13546); conditions: Compound concentration 1000.0 nM
[20] = molecular target: Serine/threonine-protein kinase D1 (Homo sapiens) (UniProt Q15139); conditions: Compound concentration 1000.0 nM
[21] = molecular target: Tyrosine-protein kinase receptor TYRO3 (Homo sapiens) (UniProt Q06418); conditions: Compound concentration 1000.0 nM
[22] = molecular target: Serine/threonine-protein kinase PAK 1 (Homo sapiens) (UniProt Q13153); conditions: Compound concentration 1000.0 nM
[23] = molecular target: Ephrin type-B receptor 3 (Homo sapiens) (UniProt P54753); conditions: Compound concentration 1000.0 nM
[24] = molecular target: Serine/threonine-protein kinase STK11 (Homo sapiens) (UniProt Q15831); conditions: Compound concentration 1000.0 nM
[25] = molecular target: Phosphatidylinositol 4,5-bisphosphate 3-kinase catalytic subunit alpha isoform (Homo sapiens) (UniProt P42336); conditions: Compound concentration 1000.0 nM
[26] = molecular target: Tyrosine-protein kinase Fyn (Homo sapiens) (UniProt P06241); conditions: Compound concentration 1000.0 nM
[27] = molecular target: Serine/threonine-protein kinase RIO1 (Homo sapiens) (UniProt Q9BRS2); conditions: Compound concentration 1000.0 nM
[28] = molecular target: cAMP-dependent protein kinase catalytic subunit alpha (Homo sapiens) (UniProt P17612); conditions: Compound concentration 1000.0 nM
[29] = molecular target: Calcium-dependent protein kinase 1 (Plasmodium falciparum) (UniProt P62344); conditions: Compound concentration 1000.0 nM
[30] = system: Receptor-type tyrosine-protein kinase FLT3 (Homo sapiens), P36888 [K663Q]; conditions: Compound concentration 1000.0 nM
[31] = molecular target: Serine/threonine-protein kinase Sgk3 (Homo sapiens) (UniProt Q96BR1); conditions: Compound concentration 1000.0 nM
[32] = molecular target: 5-hydroxytryptamine receptor 2A (Homo sapiens) (UniProt P28223); conditions: Compound concentration 10.0 uM
[33] = molecular target: Tyrosine-protein kinase SYK (Homo sapiens) (UniProt P43405); conditions: Compound concentration 1000.0 nM
[34] = molecular target: Serine/threonine-protein kinase 10 (Homo sapiens) (UniProt O94804); conditions: Compound concentration 1000.0 nM
[35] = molecular target: Myosin-IIIb (Homo sapiens) (UniProt Q8WXR4); conditions: Compound concentration 1000.0 nM
[36] = molecular target: Serine/threonine-protein kinase LATS1 (Homo sapiens) (UniProt O95835); conditions: Compound concentration 1000.0 nM
[37] = molecular target: Mitogen-activated protein kinase kinase kinase 20 (Homo sapiens) (UniProt Q9NYL2); conditions: Compound concentration 1000.0 nM
[38] = molecular target: Death-associated protein kinase 2 (Homo sapiens) (UniProt Q9UIK4); conditions: Compound concentration 1000.0 nM
[39] = molecular target: MAP kinase-activated protein kinase 5 (Homo sapiens) (UniProt Q8IW41); conditions: Compound concentration 1000.0 nM
[40] = molecular target: Inhibitor of nuclear factor kappa-B kinase subunit epsilon (Homo sapiens) (UniProt Q14164); conditions: Compound concentration 1000.0 nM
[41] = molecular target: Histamine H3 receptor (Homo sapiens) (UniProt Q9Y5N1); conditions: Compound concentration 10.0 uM
[42] = molecular target: Discoidin domain-containing receptor 2 (Homo sapiens) (UniProt Q16832); conditions: Compound concentration 1000.0 nM
[43] = molecular target: Cytoplasmic tyrosine-protein kinase BMX (Homo sapiens) (UniProt P51813); conditions: Compound concentration 1000.0 nM
[44] = molecular target: Mitogen-activated protein kinase 3 (Homo sapiens) (UniProt P27361); conditions: Compound concentration 1000.0 nM
[45] = molecular target: Tyrosine-protein kinase receptor Tie-1 (Homo sapiens) (UniProt P35590); conditions: Compound concentration 1000.0 nM
Tyrosine-protein kinase receptor Tie-1 (Homo sapiens), sequence (P35590 whole entry): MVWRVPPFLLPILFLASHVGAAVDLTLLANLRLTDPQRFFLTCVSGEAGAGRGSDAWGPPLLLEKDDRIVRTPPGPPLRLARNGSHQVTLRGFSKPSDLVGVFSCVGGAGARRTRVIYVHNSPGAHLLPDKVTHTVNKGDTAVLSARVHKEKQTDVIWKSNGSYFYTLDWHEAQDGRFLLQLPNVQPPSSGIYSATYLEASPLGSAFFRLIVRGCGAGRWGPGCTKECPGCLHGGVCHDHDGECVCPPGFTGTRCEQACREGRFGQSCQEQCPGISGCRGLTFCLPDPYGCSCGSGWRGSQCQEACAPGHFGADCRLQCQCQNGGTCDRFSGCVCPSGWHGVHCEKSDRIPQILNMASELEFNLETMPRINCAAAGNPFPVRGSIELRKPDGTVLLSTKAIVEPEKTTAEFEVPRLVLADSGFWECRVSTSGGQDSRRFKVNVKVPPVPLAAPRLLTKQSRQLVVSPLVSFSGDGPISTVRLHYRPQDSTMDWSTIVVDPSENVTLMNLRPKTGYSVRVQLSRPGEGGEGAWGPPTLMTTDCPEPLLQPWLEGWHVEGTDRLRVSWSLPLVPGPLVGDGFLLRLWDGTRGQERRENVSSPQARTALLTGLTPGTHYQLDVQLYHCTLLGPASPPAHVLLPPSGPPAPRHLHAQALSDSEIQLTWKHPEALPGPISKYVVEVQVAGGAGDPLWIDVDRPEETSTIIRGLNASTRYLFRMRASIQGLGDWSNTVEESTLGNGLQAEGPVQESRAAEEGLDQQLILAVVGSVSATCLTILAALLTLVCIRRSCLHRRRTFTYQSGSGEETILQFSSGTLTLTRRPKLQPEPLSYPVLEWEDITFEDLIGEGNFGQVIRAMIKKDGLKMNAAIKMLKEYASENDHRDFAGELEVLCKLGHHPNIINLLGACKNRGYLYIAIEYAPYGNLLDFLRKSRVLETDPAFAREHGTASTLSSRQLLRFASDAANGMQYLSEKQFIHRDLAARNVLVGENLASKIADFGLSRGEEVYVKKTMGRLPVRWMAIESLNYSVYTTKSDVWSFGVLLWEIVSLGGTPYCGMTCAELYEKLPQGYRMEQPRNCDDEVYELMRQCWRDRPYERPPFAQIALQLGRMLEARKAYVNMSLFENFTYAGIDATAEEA

Mitogen-activated protein kinase 3 (Homo sapiens), sequence (P27361 whole entry): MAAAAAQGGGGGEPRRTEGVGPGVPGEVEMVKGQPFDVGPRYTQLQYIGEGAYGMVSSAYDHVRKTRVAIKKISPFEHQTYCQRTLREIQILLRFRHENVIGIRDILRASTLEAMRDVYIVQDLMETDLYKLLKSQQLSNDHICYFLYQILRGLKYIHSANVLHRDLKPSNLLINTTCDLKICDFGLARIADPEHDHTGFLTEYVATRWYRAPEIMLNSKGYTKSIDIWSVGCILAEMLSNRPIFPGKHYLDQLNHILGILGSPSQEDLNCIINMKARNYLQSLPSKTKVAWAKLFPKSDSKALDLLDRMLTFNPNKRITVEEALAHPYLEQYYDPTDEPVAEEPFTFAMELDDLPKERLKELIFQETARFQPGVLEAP
Histamine H3 receptor (Homo sapiens), sequence (Q9Y5N1 whole entry, the tested form may be a part): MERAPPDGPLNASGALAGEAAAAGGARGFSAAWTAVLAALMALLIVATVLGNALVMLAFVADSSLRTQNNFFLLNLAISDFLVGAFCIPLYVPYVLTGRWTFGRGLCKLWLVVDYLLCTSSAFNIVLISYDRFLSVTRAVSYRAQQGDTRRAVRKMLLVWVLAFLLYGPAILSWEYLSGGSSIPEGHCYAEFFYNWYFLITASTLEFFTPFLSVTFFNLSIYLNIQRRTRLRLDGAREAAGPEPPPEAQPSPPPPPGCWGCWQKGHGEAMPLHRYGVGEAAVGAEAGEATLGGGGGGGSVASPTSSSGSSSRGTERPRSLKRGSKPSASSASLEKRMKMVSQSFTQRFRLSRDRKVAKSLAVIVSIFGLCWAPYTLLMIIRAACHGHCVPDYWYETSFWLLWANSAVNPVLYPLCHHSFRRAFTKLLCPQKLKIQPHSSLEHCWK
Phosphatidylinositol 4,5-bisphosphate 3-kinase catalytic subunit alpha isoform (Homo sapiens), sequence (P42336 whole entry, canonical isoform): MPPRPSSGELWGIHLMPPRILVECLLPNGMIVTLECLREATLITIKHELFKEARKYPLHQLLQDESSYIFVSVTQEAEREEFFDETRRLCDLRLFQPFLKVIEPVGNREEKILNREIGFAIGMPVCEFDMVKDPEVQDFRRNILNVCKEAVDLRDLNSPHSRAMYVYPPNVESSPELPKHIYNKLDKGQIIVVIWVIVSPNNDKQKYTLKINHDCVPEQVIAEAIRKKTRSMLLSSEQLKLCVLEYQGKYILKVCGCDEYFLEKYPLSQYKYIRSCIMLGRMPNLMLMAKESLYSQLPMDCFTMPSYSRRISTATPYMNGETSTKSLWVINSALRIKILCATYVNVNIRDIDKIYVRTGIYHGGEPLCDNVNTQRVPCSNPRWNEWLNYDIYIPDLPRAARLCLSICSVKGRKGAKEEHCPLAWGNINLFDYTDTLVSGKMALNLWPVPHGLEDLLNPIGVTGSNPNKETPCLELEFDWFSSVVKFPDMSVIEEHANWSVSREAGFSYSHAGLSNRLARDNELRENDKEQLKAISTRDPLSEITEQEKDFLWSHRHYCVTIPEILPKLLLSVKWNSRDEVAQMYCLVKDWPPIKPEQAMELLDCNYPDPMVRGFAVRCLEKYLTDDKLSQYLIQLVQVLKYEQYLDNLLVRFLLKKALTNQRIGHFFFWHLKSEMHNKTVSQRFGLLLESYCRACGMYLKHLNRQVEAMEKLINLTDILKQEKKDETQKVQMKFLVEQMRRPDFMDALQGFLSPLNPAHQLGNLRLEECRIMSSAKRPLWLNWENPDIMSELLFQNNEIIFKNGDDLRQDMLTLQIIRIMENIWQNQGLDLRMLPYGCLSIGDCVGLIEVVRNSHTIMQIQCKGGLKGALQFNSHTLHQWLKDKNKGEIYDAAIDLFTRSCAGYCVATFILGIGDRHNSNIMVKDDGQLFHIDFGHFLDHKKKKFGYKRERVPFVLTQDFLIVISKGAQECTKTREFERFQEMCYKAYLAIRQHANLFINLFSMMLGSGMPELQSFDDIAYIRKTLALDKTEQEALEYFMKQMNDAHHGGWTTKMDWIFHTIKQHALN
Mitogen-activated protein kinase kinase kinase 20 (Homo sapiens), sequence (Q9NYL2 2-800 limits assumed): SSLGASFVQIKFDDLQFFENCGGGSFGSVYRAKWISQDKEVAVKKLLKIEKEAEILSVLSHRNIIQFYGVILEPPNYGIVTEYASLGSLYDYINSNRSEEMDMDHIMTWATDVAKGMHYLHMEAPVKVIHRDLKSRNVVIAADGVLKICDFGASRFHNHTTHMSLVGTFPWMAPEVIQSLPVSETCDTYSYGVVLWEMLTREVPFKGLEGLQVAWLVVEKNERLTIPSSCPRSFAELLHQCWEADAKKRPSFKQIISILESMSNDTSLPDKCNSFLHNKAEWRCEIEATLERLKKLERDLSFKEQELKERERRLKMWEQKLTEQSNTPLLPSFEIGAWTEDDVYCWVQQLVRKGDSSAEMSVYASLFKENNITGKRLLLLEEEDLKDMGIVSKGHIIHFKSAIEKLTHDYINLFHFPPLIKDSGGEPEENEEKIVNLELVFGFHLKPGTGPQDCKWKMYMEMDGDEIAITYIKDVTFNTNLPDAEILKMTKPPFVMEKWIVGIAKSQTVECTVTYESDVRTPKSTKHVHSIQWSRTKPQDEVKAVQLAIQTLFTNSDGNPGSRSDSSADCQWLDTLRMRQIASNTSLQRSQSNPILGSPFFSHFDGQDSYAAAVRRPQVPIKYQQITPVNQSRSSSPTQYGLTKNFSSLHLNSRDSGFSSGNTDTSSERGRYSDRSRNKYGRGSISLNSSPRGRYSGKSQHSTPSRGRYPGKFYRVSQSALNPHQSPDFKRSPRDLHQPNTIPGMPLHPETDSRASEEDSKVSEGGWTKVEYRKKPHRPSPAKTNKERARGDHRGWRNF
5-hydroxytryptamine receptor 2A (Homo sapiens), sequence (P28223 whole entry): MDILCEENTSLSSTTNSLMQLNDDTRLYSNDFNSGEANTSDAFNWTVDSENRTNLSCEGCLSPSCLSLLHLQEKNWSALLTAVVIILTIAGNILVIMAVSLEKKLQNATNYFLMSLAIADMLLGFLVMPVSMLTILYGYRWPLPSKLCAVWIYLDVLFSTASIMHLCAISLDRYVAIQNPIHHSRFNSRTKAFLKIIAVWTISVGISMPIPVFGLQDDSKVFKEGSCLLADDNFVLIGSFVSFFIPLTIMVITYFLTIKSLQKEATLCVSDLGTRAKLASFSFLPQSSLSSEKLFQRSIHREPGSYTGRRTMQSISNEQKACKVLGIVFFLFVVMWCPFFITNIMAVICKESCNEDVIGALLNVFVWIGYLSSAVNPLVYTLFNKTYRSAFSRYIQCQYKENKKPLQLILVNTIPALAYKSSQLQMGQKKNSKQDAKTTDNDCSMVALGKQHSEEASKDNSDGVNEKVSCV
Cytoplasmic tyrosine-protein kinase BMX (Homo sapiens), sequence (P51813 whole entry): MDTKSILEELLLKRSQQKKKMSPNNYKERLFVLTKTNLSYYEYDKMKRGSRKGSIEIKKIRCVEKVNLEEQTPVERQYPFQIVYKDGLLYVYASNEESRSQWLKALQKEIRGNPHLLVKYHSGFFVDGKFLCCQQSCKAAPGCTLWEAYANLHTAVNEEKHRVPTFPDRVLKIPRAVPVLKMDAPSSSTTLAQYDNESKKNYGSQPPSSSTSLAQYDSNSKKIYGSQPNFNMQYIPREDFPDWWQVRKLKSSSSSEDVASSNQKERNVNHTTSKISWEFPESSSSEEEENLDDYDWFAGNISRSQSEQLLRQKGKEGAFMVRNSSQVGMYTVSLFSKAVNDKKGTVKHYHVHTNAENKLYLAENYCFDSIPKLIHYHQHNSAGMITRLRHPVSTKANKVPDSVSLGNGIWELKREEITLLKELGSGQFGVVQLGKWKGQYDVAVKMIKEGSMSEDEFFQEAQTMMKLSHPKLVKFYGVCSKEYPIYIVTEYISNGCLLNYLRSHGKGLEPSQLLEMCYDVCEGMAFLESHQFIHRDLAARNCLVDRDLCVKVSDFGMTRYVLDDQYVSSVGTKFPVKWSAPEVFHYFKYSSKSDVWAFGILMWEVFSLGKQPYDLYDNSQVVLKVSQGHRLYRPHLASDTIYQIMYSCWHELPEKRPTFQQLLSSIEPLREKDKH

Cc1c(C(=O)O)cc(-c2ccc(C3CCNCC3)cc2)c2ccc(-c3ccc(C(F)(F)F)cc3)cc12 [PPTN-NC]
inactive: residual activity [1] 100% | residual activity [2] 100% | residual activity [3] 100% | residual activity [4] 82% | residual activity [5] 100% | residual activity [6] 100% | residual activity [7] 100% | residual activity [8] 100% | residual activity [9] 100% | residual activity [10] 98% | inhibition [11] 19.3% | inhibition [12] 9% | residual activity [13] 89% | residual activity [14] 94% | residual activity [15] 100% | residual activity [16] 81% | residual activity [17] 100% | residual activity [18] 100% | residual activity [19] 100% | residual activity [20] 100% | residual activity [21] 100% | residual activity [22] 100% | residual activity [23] 100% | residual activity [24] 94% | residual activity [25] 100% | residual activity [26] 100% | residual activity [27] 100% | residual activity [28] 100% | residual activity [29] 100% | residual activity [30] 100% | residual activity [31] 100% | inhibition [32] 23.4% | residual activity [33] 100% | residual activity [34] 100% | residual activity [35] 75% | residual activity [36] 86% | residual activity [37] 100% | residual activity [38] 100% | residual activity [39] 100% | residual activity [40] 100% | inhibition [41] 7.04% | residual activity [42] 100% | residual activity [43] 100% | residual activity [44] 100% | residual activity [45] 100%

O=C(O)c1cc(-c2ccc(C3CCNCC3)cc2)c2ccc(-c3ccc(C(F)(F)F)cc3)cc2c1 [PPTN]
inactive: residual activity [1] 100% | residual activity [2] 100% | residual activity [3] 100% | residual activity [4] 75% | residual activity [5] 100% | residual activity [6] 100% | residual activity [7] 100% | residual activity [8] 100% | residual activity [9] 100% | residual activity [10] 87% | inhibition [11] 10.9% | inhibition [12] 28% | residual activity [13] 100% | residual activity [14] 100% | residual activity [15] 100% | residual activity [16] 99% | residual activity [17] 100% | residual activity [18] 100% | residual activity [19] 100% | residual activity [20] 100% | residual activity [21] 100% | residual activity [22] 100% | residual activity [23] 100% | residual activity [24] 100% | residual activity [25] 100% | residual activity [26] 100% | residual activity [27] 100% | residual activity [28] 100% | residual activity [29] 100% | residual activity [30] 100% | residual activity [31] 100% | inhibition [32] 29.1% | residual activity [33] 100% | residual activity [34] 100% | residual activity [35] 69% | residual activity [36] 88% | residual activity [37] 100% | residual activity [38] 100% | residual activity [39] 100% | residual activity [40] 100% | inhibition [41] 0.03% | residual activity [42] 100% | residual activity [43] 100% | residual activity [44] 100% | residual activity [45] 100%
